Measured values as given in the NIST ThermoML archive (doi:10.1021/acs.jced.7b00429).
Numbers after ± are expanded uncertainties.

Tests used:
[1] = 100 kPa, Liquid; for viscosity: Falling or rolling sphere viscometry; for speed of sound: Frequency=3 MHz, Single path-length method; for mass density: Vibrating tube method
[2] = xn = mol fraction of the nth substance listed; conditions: 100 kPa, Liquid, x2 = 0; for viscosity: Falling or rolling sphere viscometry; for speed of sound: Frequency=3 MHz, Single path-length method; for mass density: Vibrating tube method

## CCn1cc[n+](C)c1.O=S(=O)([O-])C(F)(F)F [1-ethyl-3-methylimidazolium trifluoromethanesulfonate]
[1]; 298.15 K
  viscosity: 45.67 ± 14 mPa·s
  speed of sound: 1436 ± 10 m/s
  mass density: 1379.91 ± 2.5 kg/m3
[1]; 303.15 K
  viscosity: 38.31 ± 12 mPa·s
  speed of sound: 1425.4 ± 10 m/s
  mass density: 1375.71 ± 2.5 kg/m3
[1]; 308.15 K
  viscosity: 32.38 ± 9.7 mPa·s
  speed of sound: 1414.3 ± 10 m/s
  mass density: 1371.51 ± 2.5 kg/m3
[1]; 313.15 K
  viscosity: 27.68 ± 8.3 mPa·s
  speed of sound: 1403 ± 10 m/s
  mass density: 1367.36 ± 2.5 kg/m3
[1]; 318.15 K
  viscosity: 23.86 ± 7.2 mPa·s
  speed of sound: 1392.7 ± 10 m/s
  mass density: 1363.21 ± 2.5 kg/m3
[1]; 323.15 K
  viscosity: 20.75 ± 6.2 mPa·s
  speed of sound: 1381.7 ± 10 m/s
  mass density: 1359.07 ± 2.5 kg/m3

## CC#N [acetonitrile]
[1]; 298.15 K
  viscosity: 0.34 ± 0.1 mPa·s
  speed of sound: 1278.5 ± 10 m/s
  mass density: 776.71 ± 2 kg/m3
[1]; 303.15 K
  viscosity: 0.32 ± 0.1 mPa·s
  speed of sound: 1258.4 ± 10 m/s
  mass density: 771.29 ± 2 kg/m3
[1]; 308.15 K
  viscosity: 0.31 ± 0.09 mPa·s
  speed of sound: 1238.2 ± 10 m/s
  mass density: 765.83 ± 2 kg/m3
[1]; 313.15 K
  viscosity: 0.3 ± 0.09 mPa·s
  speed of sound: 1218 ± 10 m/s
  mass density: 760.34 ± 2 kg/m3
[1]; 318.15 K
  viscosity: 0.29 ± 0.09 mPa·s
  speed of sound: 1197.9 ± 10 m/s
  mass density: 754.82 ± 2 kg/m3
[1]; 323.15 K
  viscosity: 0.28 ± 0.08 mPa·s
  speed of sound: 1177.8 ± 10 m/s
  mass density: 749.25 ± 2 kg/m3

## CC#N [acetonitrile] + CCn1cc[n+](C)c1.O=S(=O)([O-])C(F)(F)F
[2]; 298.15 K
  viscosity: 0.34 ± 0.1 mPa·s
  speed of sound: 1278.5 ± 10 m/s
  mass density: 776.71 ± 2 kg/m3
[2]; 303.15 K
  viscosity: 0.32 ± 0.1 mPa·s
  speed of sound: 1258.4 ± 10 m/s
  mass density: 771.29 ± 2 kg/m3
[2]; 308.15 K
  viscosity: 0.31 ± 0.09 mPa·s
  speed of sound: 1238.2 ± 10 m/s
  mass density: 765.83 ± 2 kg/m3
[2]; 313.15 K
  viscosity: 0.3 ± 0.09 mPa·s
  speed of sound: 1218 ± 10 m/s
  mass density: 760.34 ± 2 kg/m3
[2]; 318.15 K
  viscosity: 0.29 ± 0.09 mPa·s
  speed of sound: 1197.9 ± 10 m/s
  mass density: 754.82 ± 2 kg/m3
[2]; 323.15 K
  viscosity: 0.28 ± 0.08 mPa·s
  speed of sound: 1177.8 ± 10 m/s
  mass density: 749.25 ± 2 kg/m3
